# Source: patent US10689343B2, “Inhibitors of tryptophan 2,3-dioxygenase” (NETHERLANDS TRANSLATIONAL RESEARCH CENTER B.V., priority 2016, dated 2020)
# Several values for one entry are separate records, joined by “and”; a condition that tells them apart may be missing. Equal entries are not always repeated.
# Key:
# [1] = biological target: T1, TDO in SW48 colorectal carcinoma cells (Homo sapiens, UniProt P48775); assay: Cell-based assay for TDO in SW48 colorectal carcinoma cells (NFK GreenScreen); details: 18 hours with L-tryptophan, read-out: IC50 on TDO in cells
# T1 construct: Endogenous expression of TDO has been determined in a variety of cancer cell lines; host or cells: SW48 colorectal carcinoma cells
# T1 sequence (P48775 whole entry): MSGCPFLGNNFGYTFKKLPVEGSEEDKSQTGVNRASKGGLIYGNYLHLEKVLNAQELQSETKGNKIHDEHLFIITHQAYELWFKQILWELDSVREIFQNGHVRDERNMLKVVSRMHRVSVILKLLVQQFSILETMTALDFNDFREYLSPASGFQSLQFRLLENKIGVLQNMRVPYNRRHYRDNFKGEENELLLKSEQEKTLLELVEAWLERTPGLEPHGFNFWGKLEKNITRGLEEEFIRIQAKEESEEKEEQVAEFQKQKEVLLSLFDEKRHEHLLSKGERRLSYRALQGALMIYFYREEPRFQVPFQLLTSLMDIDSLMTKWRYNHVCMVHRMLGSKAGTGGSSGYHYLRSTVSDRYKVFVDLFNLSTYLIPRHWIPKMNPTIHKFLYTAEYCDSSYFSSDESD
# Procedure: The biological activity of TDO inhibitors can be measured by applying above detection methods to cells that are treated with test compound. Endogenous expression of TDO has been determined in a variety of cancer cell lines (Pilotte et al.; Seegers, et al.), or TDO can be expressed in cells that lack endogenous TDO by transfection of an expression vector containing TDO cDNA. […] A preferred assay is the cell-based NFK GreenScreen™ assay (Seegers et al, supra), which measures the cellular inhibitory activity of compounds on TDO. […] No. V9920). Cell-Based Assay for TDO The NFK GreenScreen™ assay technology was also used to determine the inhibitory activity of compounds on TDO in SW48 colorectal carcinoma cells (Seegers, N., et al., J. Biol. Screen. 19: 1266; 2014). […] Compounds were dissolved in DMSO and diluted in RPMI 1640. Final DMSO concentration in the assay was 0.4% (v/v). Eight thousand cells per well in 40 μl were seeded in a black 384-well tissue plate (cat. No. 781086; […] To determine NFK levels, 12 μl NFK Green™ (NTRC, Oss, The Netherlands) was added to each well, and the plate was sealed and incubated for 4 hours at 37° C. Fluorescence was measured on an EnVision multimode reader (Perkin Elmer, Waltham, Mass., USA).
# CYP2D6 = CYP2D6 (Homo sapiens, UniProt P10635); assay: P450-Glo CYP2D6 Luc-IP assay
# Sequence of CYP2D6 (P10635 whole entry): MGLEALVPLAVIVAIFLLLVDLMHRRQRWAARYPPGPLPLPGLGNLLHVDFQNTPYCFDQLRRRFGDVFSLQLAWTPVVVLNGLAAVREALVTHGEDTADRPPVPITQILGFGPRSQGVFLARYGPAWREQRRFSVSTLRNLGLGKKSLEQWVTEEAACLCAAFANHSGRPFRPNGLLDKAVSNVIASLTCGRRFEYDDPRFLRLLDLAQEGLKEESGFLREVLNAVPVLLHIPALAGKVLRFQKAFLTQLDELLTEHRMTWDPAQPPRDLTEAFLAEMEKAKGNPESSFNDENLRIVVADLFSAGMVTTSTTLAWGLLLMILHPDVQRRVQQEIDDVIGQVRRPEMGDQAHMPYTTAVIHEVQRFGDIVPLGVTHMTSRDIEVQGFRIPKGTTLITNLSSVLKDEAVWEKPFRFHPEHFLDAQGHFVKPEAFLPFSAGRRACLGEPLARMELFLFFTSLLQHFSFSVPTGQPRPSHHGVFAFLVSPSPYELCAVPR
# Recombinant TDO = biological target: T2, Recombinant TDO (Homo sapiens, UniProt P48775); assay: Biochemical assay for TDO (NFK GreenScreen); details: 50 nM TDO, 200 μM L-tryptophan
# T2 construct: Recombinant TDO (Seegers, N., et al.) and all other assay components were diluted in TDO reaction buffer
# T2 sequence (P48775 whole entry): as the sequence (P48775 whole entry) above
# Procedure, shortened: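 Recombinant human TDO (50 nM) preincubated with compound 60 min at room temperature in 100 mM NaH2PO4 pH 7.0, 0.02% Tween-20, with ascorbic acid. Reaction then run 15 min with 200 μM L-tryptophan (final), 0.3% DMSO. NFK product detected by NFK Green fluorescence after 3 h at 37° C; IC50 derived.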
# CYP3A4 = CYP3A4 (Homo sapiens, UniProt P08684); assay: P450-Glo CYP3A4 luciferin isopropylacetal (Luc-IP) assay
# Sequence of CYP3A4 (P08684 whole entry): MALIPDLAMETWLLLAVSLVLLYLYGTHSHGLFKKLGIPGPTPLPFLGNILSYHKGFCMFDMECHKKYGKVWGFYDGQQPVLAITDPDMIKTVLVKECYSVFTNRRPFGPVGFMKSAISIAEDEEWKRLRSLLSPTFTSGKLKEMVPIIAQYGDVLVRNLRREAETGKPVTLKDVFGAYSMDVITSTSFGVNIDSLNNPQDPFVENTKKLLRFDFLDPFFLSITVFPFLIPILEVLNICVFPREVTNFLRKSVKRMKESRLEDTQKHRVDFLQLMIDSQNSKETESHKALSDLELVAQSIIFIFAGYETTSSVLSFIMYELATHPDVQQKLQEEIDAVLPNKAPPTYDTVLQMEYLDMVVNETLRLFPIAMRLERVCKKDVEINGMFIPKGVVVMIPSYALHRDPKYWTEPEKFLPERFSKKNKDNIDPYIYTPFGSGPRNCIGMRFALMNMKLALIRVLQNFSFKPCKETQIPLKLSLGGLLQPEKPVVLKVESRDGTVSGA
# Excerpt: To determine the inhibitory potency of compounds on CYP3A4 enzyme, the P450-Glo CYP3A4 luciferin isopropylacetal (Luc-IP) assay was used (Promega, Madison, Wis., USA, Cat. No. V9920). The assay makes use of a luminogenic isopropylacetal (IPA) substrate that is a derivative from beetle luciferin, a substrate of luciferase enzymes. The IPA substrate is converted by CYP3A4 to luciferin, which in turn reacts with luciferase to produce an amount of light that is directly proportional to the activity of CYP3A4. Compounds were serially diluted in DMSO and finally in 400 mM K2HPO4, pH 7.4. 5 μl of compound solution and 5 μl of CYP3A4/substrate solution were combined in the well of a white 384-well Optiplate (Perkin Elmer). The DMSO concentration in the assay was 0.1%. After incubation for 10 minutes at room temperature in the dark, 10 μl of NADPH regeneration system was added and incubation was continued for 10 min. Then, 20 μl of Luciferin Detection Reagent was added to stop the reaction, and incubation was continued for another 20 min. Luminescence was measured on an Envision multimode reader and IC50 values were calculated using XLfit™. […] Instead of in a 96-well plate, the assay was performed in 384-well white Perkin Elmer Optiplate (cat. no. 6007290).
smiles,measurement,setting,value
"O=C(NCCN1CCCC1)c1ccc(-c2c[nH]c3cc(F)ccc23)cc1Cl [Example 70, 2-Chloro-4-(6-fluoro-1H-indol-3-yl)-N-(2-pyrrolidin-1-ylethyl)benzamide]",IC50,[1],≤ 200 nM
same,IC50,CYP2D6,> 10000 nM
same,IC50,Recombinant TDO,< 1000 nM
same,IC50,CYP3A4,5000 to 10000 nM
"CC(N)CNC(=O)c1ccc(-c2c[nH]c3cc(F)ccc23)cc1Cl (stereo not drawn) [Example 71, N-(2-aminopropyl)-2-chloro-4-(6-fluoro-1H-indol-3-yl)benzamide]",IC50,[1],≤ 200 nM
same,IC50,CYP2D6,> 10000 nM
same,IC50,Recombinant TDO,< 1000 nM
same,IC50,CYP3A4,5000 to 10000 nM
"CN1CCN(CCCNC(=O)c2ccc(-c3c[nH]c4cc(F)ccc34)cc2Cl)CC1 [Example 72, 2-Chloro-4-(6-fluoro-1H-indol-3-yl)-N-[3-(4-methylpiperazin-1-yl)propyl]benzamide]",IC50,[1],≤ 200 nM
same,IC50,CYP2D6,5000 to 10000 nM
same,IC50,Recombinant TDO,< 1000 nM
same,IC50,CYP3A4,5000 to 10000 nM
"CCN(CC)CC(C)NC(=O)c1ccc(-c2c[nH]c3cc(F)ccc23)cc1Cl (stereo not drawn) [Example 73, 2-Chloro-N-[2-(diethylamino)-1-methyl-ethyl]-4-(6-fluoro-1H-indol-3-yl)benzamide]",IC50,[1],≤ 200 nM
same,IC50,CYP2D6,> 10000 nM
same,IC50,Recombinant TDO,< 1000 nM
same,IC50,CYP3A4,> 10000 nM
"O=C(N[C@@H]1CCNC[C@@H]1F)c1ccc(-c2c[nH]c3cc(F)ccc23)cc1 [Example 74, 4-(6-Fluoro-1H-indol-3-yl)-N-[(3S,4R)-3-fluoro-4-piperidyl]benzamide]",IC50,[1],≤ 200 nM
same,IC50,CYP2D6,> 10000 nM
same,IC50,Recombinant TDO,< 1000 nM
same,IC50,CYP3A4,5000 to 10000 nM
"COc1cc(-c2c[nH]c3cc(F)ccc23)ccc1C(=O)N[C@H]1CCCNC1 [Example 75, 4-(6-Fluoro-1H-indol-3-yl)-2-methoxy-N-[(3S)-3-piperidyl]benzamide]",IC50,[1],≤ 200 nM
same,IC50,CYP2D6,> 10000 nM
same,IC50,Recombinant TDO,< 1000 nM
same,IC50,CYP3A4,5000 to 10000 nM
"O=C(NCC1(F)CCNCC1)c1ccc(-c2c[nH]c3cc(F)ccc23)cc1 [Example 76, 4-(6-Fluoro-1H-indol-3-yl)-N-[(4-fluoro-4-piperidyl)methyl]benzamide]",IC50,[1],≤ 200 nM
same,IC50,CYP2D6,> 10000 nM
same,IC50,Recombinant TDO,< 1000 nM
same,IC50,CYP3A4,> 10000 nM
"O=C(NCCN1CCCC1)c1ccc(-c2c[nH]c3cc(F)ccc23)cc1 [Example 77, 4-(6-Fluoro-1H-indol-3-yl)-N-(2-pyrrolidin-1-ylethyl)benzamide]",IC50,[1],≤ 200 nM
same,IC50,CYP2D6,> 10000 nM
same,IC50,Recombinant TDO,< 1000 nM
same,IC50,CYP3A4,> 10000 nM
"CN(C)CC(O)CNC(=O)c1ccc(-c2c[nH]c3cc(F)ccc23)cc1 (stereo not drawn) [Example 78, N-[3-(dimethylamino)-2-hydroxy-propyl]-4-(6-fluoro-1H-indol-3-yl)benzamide]",IC50,[1],≤ 200 nM
same,IC50,CYP2D6,> 10000 nM
same,IC50,Recombinant TDO,< 1000 nM
same,IC50,CYP3A4,> 10000 nM
"CCN(CC)CC(C)NC(=O)c1ccc(-c2c[nH]c3cc(F)ccc23)cc1OC (stereo not drawn) [Example 79, N-[2-(diethylamino)-1-methyl-ethyl]-4-(6-fluoro-1H-indol-3-yl)-2-methoxy-benzamide]",IC50,[1],≤ 200 nM
same,IC50,CYP2D6,> 10000 nM
same,IC50,Recombinant TDO,< 1000 nM
same,IC50,CYP3A4,> 10000 nM
"CS(=O)(=O)CC(=O)Nc1ccc(-c2c[nH]c3cc(F)ccc23)cc1 [Example 80, N-[4-(6-fluoro-1H-indol-3-yl)phenyl]-2-methylsulfonyl-acetamide]",IC50,[1],≤ 200 nM
same,IC50,CYP2D6,> 10000 nM
same,IC50,Recombinant TDO,1000 to 5000 nM
same,IC50,CYP3A4,> 10000 nM
"CC(CN(C)C)NC(=O)c1ccc(-c2c[nH]c3cc(F)ccc23)cc1Cl (stereo not drawn) [Example 82, 2-Chloro-N-[2-(dimethylamino)-1-methyl-ethyl]-4-(6-fluoro-1H-indol-3-yl)benzamide]",IC50,[1],≤ 200 nM
same,IC50,CYP2D6,> 10000 nM
same,IC50,Recombinant TDO,< 1000 nM
same,IC50,CYP3A4,5000 to 10000 nM
"O=C(NC1CCCNCC1)c1ccc(-c2c[nH]c3cc(F)ccc23)cc1 (stereo not drawn) [Example 83, N-(azepan-4-yl)-4-(6-fluoro-1H-indol-3-yl)benzamide]",IC50,[1],≤ 200 nM
same,IC50,CYP2D6,> 10000 nM
same,IC50,Recombinant TDO,< 1000 nM
same,IC50,CYP3A4,> 10000 nM
"O=C(NC[C@@H]1CCCN1)c1ccc(-c2c[nH]c3cc(F)ccc23)cc1 [Example 84, 4-(6-Fluoro-1H-indol-3-yl)-N-[[(2S)-pyrrolidin-2-yl]methyl]benzamide]",IC50,[1],≤ 200 nM
same,IC50,CYP2D6,> 10000 nM
same,IC50,Recombinant TDO,< 1000 nM
same,IC50,CYP3A4,> 10000 nM
"O=C(N[C@H]1CCC[C@@H]1O)c1ccc(-c2c[nH]c3cc(F)ccc23)cc1 [Example 87, 4-(6-Fluoro-1H-indol-3-yl)-N-[(1S,2S)-2-hydroxycyclopentyl]benzamide]",IC50,[1],≤ 500 nM and 200 to 500 nM
same,IC50,CYP2D6,> 10000 nM
same,IC50,Recombinant TDO,< 1000 nM
same,IC50,CYP3A4,> 10000 nM
"O=C(NN1CCOCC1)c1ccc(-c2c[nH]c3cc(F)ccc23)cc1 [Example 93, 4-(6-Fluoro-1H-indol-3-yl)-N-morpholino-benzamide]",IC50,[1],≤ 500 nM and 200 to 500 nM
same,IC50,CYP2D6,> 10000 nM
same,IC50,Recombinant TDO,< 1000 nM
same,IC50,CYP3A4,> 10000 nM
"O=C(NC[C@H]1CCCNC1)c1ccc(-c2c[nH]c3cc(F)ccc23)cc1 [Example 94, 4-(6-Fluoro-1H-indol-3-yl)-N-[[(3S)-3-piperidyl]methyl]benzamide]",IC50,[1],≤ 500 nM and 200 to 500 nM
same,IC50,CYP2D6,> 10000 nM
same,IC50,Recombinant TDO,< 1000 nM
same,IC50,CYP3A4,5000 to 10000 nM
"O=C(NC[C@@H]1CCNC1)c1ccc(-c2c[nH]c3cc(F)ccc23)cc1 [Example 95, 4-(6-Fluoro-1H-indol-3-yl)-N-[[(3R)-pyrrolidin-3-yl]methyl]benzamide]",IC50,[1],≤ 500 nM and 200 to 500 nM
same,IC50,CYP2D6,> 10000 nM
same,IC50,Recombinant TDO,< 1000 nM
same,IC50,CYP3A4,> 10000 nM
"O=C(Nc1ccc(-c2c[nH]c3cc(F)ccc23)cc1)C1CC12CCNCC2 (stereo not drawn) [Example 97, N-[4-(6-Fluoro-1H-indol-3-yl)phenyl]-6-azaspiro[2.5]octane-2-carboxamide]",IC50,[1],≤ 500 nM and 200 to 500 nM
same,IC50,CYP2D6,> 10000 nM
same,IC50,Recombinant TDO,< 1000 nM
same,IC50,CYP3A4,> 10000 nM
"O=C(Nc1ccc(-c2c[nH]c3cc(F)ccc23)cc1)C1[C@H]2COC[C@@H]12 (stereo partly drawn) [Example 100, (1R,5S)—N-[4-(6-fluoro-1H-indol-3-yl)phenyl]-3-oxabicyclo[3.1.0]hexane-6-carboxamide]",IC50,[1],≤ 500 nM and 200 to 500 nM
same,IC50,CYP2D6,> 10000 nM
same,IC50,Recombinant TDO,1000 to 5000 nM
same,IC50,CYP3A4,> 10000 nM
"O=C(CC1CNCCO1)Nc1ccc(-c2c[nH]c3cc(F)ccc23)cc1 (stereo not drawn) [Example 102, N-[4-(6-fluoro-1H-indol-3-yl)phenyl]-2-morpholin-2-yl-acetamide]",IC50,[1],≤ 500 nM and 200 to 500 nM
same,IC50,CYP2D6,> 10000 nM
same,IC50,Recombinant TDO,< 1000 nM
same,IC50,CYP3A4,5000 to 10000 nM
"N[C@H]1CCC[C@@H](C(=O)Nc2ccc(-c3c[nH]c4cc(F)ccc34)cc2)C1 [Example 103, (1R,3S)-3-amino-N-[4-(6-fluoro-1H-indol-3-yl)phenyl]cyclohexanecarboxamide]",IC50,[1],≤ 500 nM and 200 to 500 nM
same,IC50,CYP2D6,> 10000 nM
same,IC50,Recombinant TDO,< 1000 nM
same,IC50,CYP3A4,> 10000 nM
"O=C(Nc1ccc(-c2c[nH]c3cc(F)ccc23)cc1)C1C2CNCC21 (stereo not drawn) [Example 104, N-[4-(6-fluoro-1H-indol-3-yl)phenyl]-3-azabicyclo[3.1.0]hexane-6-carboxamide]",IC50,[1],≤ 500 nM and 200 to 500 nM
same,IC50,CYP2D6,> 10000 nM
same,IC50,Recombinant TDO,< 1000 nM
same,IC50,CYP3A4,5000 to 10000 nM
"N[C@@H]1CCC[C@H](C(=O)Nc2ccc(-c3c[nH]c4cc(F)ccc34)cc2)C1 [Example 105, (1S,3R)-3-amino-N-[4-(6-fluoro-1H-indol-3-yl)phenyl]cyclohexanecarboxamide]",IC50,[1],≤ 500 nM and 200 to 500 nM
same,IC50,CYP2D6,> 10000 nM
same,IC50,Recombinant TDO,< 1000 nM
same,IC50,CYP3A4,> 10000 nM
